Test results reported in patent US20090239861A1, “QUINAZOLINE DERIVATIVES AS ANTICANCER AGENTS” (priority 2005, published 2009).

Key:
[1] = target: T1, EGFR tyrosine kinase (Homo sapiens, UniProt P00533); test: Protein tyrosine kinase phosphorylation assay, Test (a), EGFR; format: biochemical; conditions: ATP at Km concentration; read-out: IC50 Test (a): Inhibition of EGFR tyrosine kinase protein phosphorylation
T1 construct: Recombinant intracellular fragments of EGFR, erbB2 and erbB4; made in house; host or cells: baculovirus/Sf21 insect cells
T1 sequence (P00533 669-1210 limits assumed): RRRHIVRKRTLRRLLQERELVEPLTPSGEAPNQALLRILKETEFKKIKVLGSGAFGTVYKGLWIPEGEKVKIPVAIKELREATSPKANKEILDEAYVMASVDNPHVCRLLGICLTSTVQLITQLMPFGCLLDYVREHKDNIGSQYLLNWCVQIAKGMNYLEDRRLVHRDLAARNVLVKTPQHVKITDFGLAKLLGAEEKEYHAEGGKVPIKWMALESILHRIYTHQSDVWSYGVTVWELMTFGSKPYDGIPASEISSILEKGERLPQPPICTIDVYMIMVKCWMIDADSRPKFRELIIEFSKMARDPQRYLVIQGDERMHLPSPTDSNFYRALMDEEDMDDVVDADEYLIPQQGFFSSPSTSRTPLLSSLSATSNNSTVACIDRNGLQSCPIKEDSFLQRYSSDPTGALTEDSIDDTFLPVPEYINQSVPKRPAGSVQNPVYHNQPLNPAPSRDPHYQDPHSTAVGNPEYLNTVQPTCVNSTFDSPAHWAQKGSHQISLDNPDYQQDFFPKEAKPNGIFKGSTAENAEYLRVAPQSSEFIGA
Description: (§1) a) Protein Tyrosine Kinase phosphorylation Assays
(§2) This test measures the ability of a test compound to inhibit the phosphorylation of a tyrosine containing polypeptide substrate by EGFR, erbB2 and erbB4 tyrosine kinase enzyme.
(§3) Recombinant intracellular fragments of EGFR, erbB2 and erbB4 (accession numbers X00588, X03363 and L07868 respectively) were cloned and expressed in the baculovirus/Sf21 system. […]
(§4) Constitutive kinase activity of these recombinant proteins was determined by their ability to phosphorylate a synthetic peptide (made up of a random co-polymer of Glutamic Acid, Alanine and Tyrosine in the ratio of 6:3:1). […]
(§5) The immobilised phospho-peptide product of the reaction was detected by immunological methods. […] After further washing, HRP activity in each well of the plate was measured colorimetrically using 22′-Azino-di-[3-ethylbenzthiazoline sulfonate (6)]diammonium salt crystals (ABTS™ from Roche) as a substrate.
(§6) Quantification of colour development and thus enzyme activity was achieved by the measurement of absorbance at 405 nm on a Molecular Devices ThermoMax microplate reader. Kinase inhibition for a given compound was expressed as an IC50 value. […] The range of phosphorylation was calculated from the positive (vehicle plus ATP) and negative (vehicle minus ATP) control values.

[2] = target: T2, erbB2 tyrosine kinase (Homo sapiens, UniProt P04626); test: Protein tyrosine kinase phosphorylation assay, Test (a), erbB2; format: biochemical; conditions: ATP at Km concentration; read-out: IC50 Test (a): Inhibition of erbB2 tyrosine kinase protein phosphorylation
T2 construct: Recombinant intracellular fragments of EGFR, erbB2 and erbB4; made in house; host or cells: baculovirus/Sf21 insect cells
T2 sequence (P04626 676-1255 limits assumed): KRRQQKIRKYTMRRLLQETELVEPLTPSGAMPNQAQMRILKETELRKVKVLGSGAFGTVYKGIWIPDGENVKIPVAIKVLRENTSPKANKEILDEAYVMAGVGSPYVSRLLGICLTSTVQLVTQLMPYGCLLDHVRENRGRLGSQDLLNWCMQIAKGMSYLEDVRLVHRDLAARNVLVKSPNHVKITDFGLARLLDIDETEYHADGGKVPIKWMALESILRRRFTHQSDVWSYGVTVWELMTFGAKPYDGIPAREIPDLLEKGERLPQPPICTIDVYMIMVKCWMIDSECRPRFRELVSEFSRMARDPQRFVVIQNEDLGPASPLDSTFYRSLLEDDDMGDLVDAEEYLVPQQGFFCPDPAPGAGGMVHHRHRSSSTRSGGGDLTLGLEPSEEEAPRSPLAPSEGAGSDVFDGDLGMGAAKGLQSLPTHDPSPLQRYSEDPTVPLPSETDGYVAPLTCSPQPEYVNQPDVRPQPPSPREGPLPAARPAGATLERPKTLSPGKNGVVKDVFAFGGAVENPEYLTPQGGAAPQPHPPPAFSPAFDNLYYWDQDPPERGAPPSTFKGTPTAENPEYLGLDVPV
Description: as §1, §2, §3, §4, §5, §6

IC50 [1] [nM] | IC50 [2] [nM] | SMILES
370 | 11 | C[C@@H](Oc1cccc2ncnc(Nc3ccc4c(ccn4Cc4ccccn4)c3)c12)C(=O)N(C)CCO [Example 1, (2R)—N-(2-Hydroxyethyl)-N-methyl-2-[(4-{[1-(pyridin-2-ylmethyl)-1H-indol-5-yl]amino}quinazolin-5-yl)oxy]propanamide]
170 | 15 | C[C@@H](Oc1cccc2ncnc(Nc3ccc4c(ccn4Cc4ccccn4)c3)c12)C(=O)N(C)C [Example 2, (2R)—N,N-Dimethyl-2-[(4-{[1-(pyridin-2-ylmethyl)-1H-indol-5-yl]amino}quinazolin-5-yl)oxy]propanamide]
